Source: patent US9895352B2, “Indolinone compounds and uses thereof” (Oncternal Therapeutics, Inc., priority 2014, dated 2018)
Like-named read-outs stand apart in the source and are kept apart here.

Experiments:
[1] = human liver microsome, no cofactor, 60 min
[2] = in vitro; details: human liver microsomes
[3] = Half-life in mouse hepatocytes; assay type: in vitro ADME; details: read-out: Half life of cmpds
Protocol: (§1) In another study, metabolism of compounds in hepatocytes from various species was examined. Hepatocytes were contacted with a compound, and the half-life of the compound was determined.

[4] = in vitro; details: dog, liver microsomes
[5] = tested on: SKES cells (Ewing Sarcoma cell line); test: CCK-8 tetrazolium tumor cell growth inhibition, SKES; assay type: cell-based; details: Homo sapiens
[6] = Half-life in rat hepatocytes; assay type: in vitro ADME; details: read-out: Half life of cmpds
Protocol: as §1

[7] = in vitro; details: rat, liver microsomes
[8] = Half-life in human hepatocytes; assay type: in vitro ADME; details: read-out: Half life of cmpds
Protocol: as §1

[9] = Half-life in dog hepatocytes; assay type: in vitro ADME; details: read-out: Half life of cmpds
Protocol: as §1

[10] = Pharmacokinetics after IV and oral administration; assay type: in vivo; details: BALB/c mice or Sprague Dawley rats; for Cmax / half-life / Tmax / bioavailability: plasma; for Tmax: read-out: Tmax
Protocol: Certain pharmacokinetics parameters were determined for certain compounds in vivo for intravenous and oral administration. Briefly, compounds were formulated and administered using IV bolus, continuous IV infusion or oral administration. Blood was collected at multiple time points over 24 hours and processed into plasma. Plasma was analyses for parent using LC/MS/MS. Certain parameters for certain compounds were obtained in duplicate.

[11] = in vitro; details: mouse, liver microsomes
[12] = iv, 5 mg/kg, 5 mg/kg IV, captisol
[13] = po, 20 mg/kg, 20 mg/kg po, labrasol/tetraglycol 9:1
[14] = po, 20 mg/kg, 20 mg/kg po, labrasol:tetraglycol:water 72:8:20

## O=C(CC1(O)C(=O)Nc2c(Cl)ccc(Cl)c21)c1ccc(N2CCCC2)cc1 (single isomer, unassigned) [Cmpd 18, 4,7-Dichloro-3-hydroxy-3-(2-oxo-2-(4-(pyrrolidin-1-yl)phenyl)ethyl)indolin-2-one]
[1]
  Remaining (NCF = 60 min): 99.4%
[2]
  half-life: 23 min
[3]
  half-life: 60 min
[4]
  half-life: 24.1 min
[5]; 72 h, SKES cells, 3 days with compound, CCK-8 (TABLE 3)
  IC50: < 5 µM
[5]; SKES, ES, EWS-FLI1 Type 2
  IC50: < 5 µM
[6]
  half-life: 18.8 min
[7]
  half-life: 1.3 min
[8]
  half-life: 63.6 min
[9]
  half-life: 30.6 min
[10]; 5 mg/kg IV, captisol
  AUC: 3738 h * (ng/mL)
[10]; 20 mg/kg po, labrasol/tetraglycol 9:1
  AUC: 7497 h * (ng/mL)
[10]; 20 mg/kg po, labrasol:tetraglycol:water 72:8:20
  AUC: 11029 h * (ng/mL)
[10]; [12]
  Cmax: 14300 ng/mL
  half-life: 48 min
  Tmax: 1.98 min
[10]; [13]
  Cmax: 3220 ng/mL
  bioavailability: 50%
  half-life: 84 min
  Tmax: 60 min
[10]; [14]
  Cmax: 6420 ng/mL
  bioavailability: 74%
  half-life: 54 min
  Tmax: 60 min
[11]
  half-life: 9.6 min
